Assay results: patent publication US20260144786A1, “METHOD FOR TREATING MENSTRUAL CYCLE DISORDERS” (Guangzhou HuTong Youwu Biotechnology Co., Ltd, priority 2023, published 2026)

Key:
[1] = Use of PQQ for preventing menstrual cycle disorders (oral tablets, six months, vitamin C control); assay type: in vivo, human; conditions: preliminary experimental data
Method: (§1) The criteria for menstrual cycle disorders are as follows: 1. Early menstruation: Early menstruation refers to a shortened menstrual cycle that is shorter than 21 days and occurs for more than two consecutive cycles. It is a biphasic basal body temperature of ovulatory functional uterine bleeding, a short follicular phase of only 7 or 8 days; or a luteal phase of less than 10 days, or a temperature rise of less than 0.5° C. 2. Delayed menstruation: Menstruation is missed for more than 7 days, or even 40-50 days, and symptoms appear for more than 2 menstrual cycles. […] 3. Prolonged menstruation: The symptoms of this type of menstrual disorder are mainly a normal menstrual cycle but a prolonged menstrual period, lasting more than 7 days, or even up to 2 weeks before ending. Those with inflammation usually experience lower abdominal pain, which is aggravated during menstruation. Usually, the amount of leucorrhea is heavy, yellow or yellowish-white, thick, and odorous. Those with incomplete corpus luteum atrophy are also accompanied by heavy menstruation; those with prolonged endometrial repair still experience a small amount of persistent vaginal bleeding after the normal menstrual period. 4. Irregular menstruation: Menstruation is early or late, and the cycle is shorter than 21 days or longer than 35 days. No endometriosis. […]

[2] = Use of PQQ for ameliorating or treating menstrual cycle disorders (oral tablets, six months, vitamin C control); assay type: in vivo, human; conditions: preliminary experimental data
Method: as §1

SMILES: O=C(O)c1cc(C(=O)O)c2c(n1)C(=O)C(=O)c1cc(C(=O)O)[nH]c1-2 [PQQ, 4,5-dioxo-1H-pyrrolo[2,3-f]quinoline-2,7,9-tricarboxylic acid]
- effect on preventing menstrual cycle disorders compared with a placebo [1]: significant effect
- effect on alleviating or treating menstrual cycle disorders compared with a placebo [2]: significant effect
